Like-named read-outs stand apart in the source and are kept apart here.
Legend:
[1] = test system: Gram-negative bacteria (Enterobacterales, Pseudomonas, Acinetobacter); details: for RM R (strains resistant by reference method) / RM S (strains susceptible by reference method) / RM I (strains intermediate by reference method): total of 3 sites, blood cultures; for CLSI RM R / EUCAST RM R: number of strains resistant; for CLSI RM S / EUCAST RM S: number of strains susceptible; for CLSI RM I: number of strains I
Description: (§1) For Colistin (on gram-negative bacteria) and vancomycin (in the case of Staphylococcus), the method used to determine the antimicrobial susceptibility was broth microdilution [5]. […] Standard methodologies were performed from the same inoculum used to spike the blood cultures. Quality control of the reference methods was also performed according to the recommendations of EUCAST and CLSI.
(§2) All the strains were classified as S, I or R according the reference methods. MIC was determined for vancomycin and colistin. The presence of ESBL on Enterobacterales group I, together with the screening for ESBL on Enterobacterales group II, and the screening for AmpC and presence of carbapenemases according EUCAST protocol for detection of mechanisms of resistance were also performed.
(§3) Positive blood cultures were spiked in blood agar and colonies identified and submitted to antimicrobial susceptibility assay according reference disk diffusion method and/or to MIC values determined by microdilution. The results were analysed using the most recent EUCAST breakpoint tables and the M100 (29th ed.) breakpoint tables from CLSI.

[2] = test system: Gram-positive bacteria (Staphylococcus spp, Enterococcus spp); test: Reference method (RM): disk diffusion and/or broth microdilution, S/I/R classification, Gram-positive strains; type: cell-based; details: for EUCAST RM I: number of strains I; for CLSI RM R / EUCAST RM R: number of strains resistant; for CLSI RM S / EUCAST RM S: number of strains susceptible;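 as to all read-outs here: susceptibility categories assigned with the latest EUCAST breakpoint tables or CLSI M100 29th edition breakpoints, with quality control of the reference methods following EUCAST and CLSI guidance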
Description: as §1, §2, §3

K. pneumoniae = test: MIC of strains giving very major errors (VME); type: cell-based
Description: as §1, §3

[3] = CLSI, FASTinov, Porto, spiked on blood cultures
[4] = CLSI, Hospital Ramon et Cajal, Madrid, patients' blood cultures
[5] = CLSI, Hospital S. João, Porto, patients' blood cultures
[6] = EUCAST, FASTinov, Porto, spiked on blood cultures
[7] = EUCAST, Hospital Ramon et Cajal, Madrid, patients' blood cultures
[8] = EUCAST, Hospital S. João, Porto, patients' blood cultures
[9] = CLSI, FASTinov, Porto, spiked blood cultures
[10] = CLSI, total of 3 sites, blood cultures
[11] = EUCAST, FASTinov, Porto, spiked blood cultures
[12] = EUCAST, total of 3 sites, blood cultures
[13] = EUCAST, Hospital Ramon et Cajal, Madrid, patients blood cultures
[14] = CLSI, Hospital Ramon et Cajal, Madrid, patients blood cultures

NCC[C@H](O)C(=O)N[C@@H]1C[C@H](N)[C@@H](O[C@H]2O[C@H](CN)[C@@H](O)[C@H](O)[C@H]2O)[C@H](O)[C@H]1O[C@H]1O[C@H](CO)[C@@H](O)[C@H](N)[C@H]1O [Amikacin]
RM R (strains resistant by reference method) ([1]; CLSI): 27 | RM S (strains susceptible by reference method) ([1]; CLSI): 316 | RM R (strains resistant by reference method) ([1]; EUCAST): 30 | RM S (strains susceptible by reference method) ([1]; EUCAST): 313 | CLSI RM R [1, 3]: 25 | CLSI RM R [1, 4]: 1 | CLSI RM R [1, 5]: 1 | EUCAST RM R [1, 6]: 27 | EUCAST RM R [1, 7]: 1 | EUCAST RM R [1, 8]: 2 | CLSI RM S [1, 3]: 158 | CLSI RM S [1, 4]: 77 | CLSI RM S [1, 5]: 81 | EUCAST RM S [1, 6]: 156 | EUCAST RM S [1, 7]: 77 | EUCAST RM S [1, 8]: 80

CC1(C)S[C@@H]2[C@H](NC(=O)[C@H](N)c3ccccc3)C(=O)N2[C@H]1C(=O)O [Ampicillin]
RM I (strains intermediate by reference method) ([1]; CLSI): 1 | RM R (strains resistant by reference method) ([1]; CLSI): 164 | RM S (strains susceptible by reference method) ([1]; CLSI): 66 | RM R (strains resistant by reference method) ([1]; EUCAST): 165 | RM S (strains susceptible by reference method) ([1]; EUCAST): 66 | CLSI RM I [1, 4]: 1 | CLSI RM R [1, 3]: 67 | CLSI RM R [1, 4]: 53 | CLSI RM R [1, 5]: 44 | EUCAST RM R [1, 6]: 67 | EUCAST RM R [1, 7]: 54 | EUCAST RM R [1, 8]: 44 | CLSI RM S [1, 3]: 14 | CLSI RM S [1, 4]: 20 | CLSI RM S [1, 5]: 32 | EUCAST RM S [1, 6]: 14 | EUCAST RM S [1, 7]: 20 | EUCAST RM S [1, 8]: 32 | RM R (strains resistant by reference method) [2, 9]: 23 | RM S (strains susceptible by reference method) [2, 9]: 42 | RM R (strains resistant by reference method) [2, 10]: 38 | RM S (strains susceptible by reference method) [2, 10]: 61 | RM R (strains resistant by reference method) [2, 11]: 23 | RM S (strains susceptible by reference method) [2, 11]: 42 | RM I (strains intermediate by reference method) [2, 12]: 2 | RM R (strains resistant by reference method) [2, 12]: 38 | RM S (strains susceptible by reference method) [2, 12]: 59 | EUCAST RM I [2, 13]: 2 | CLSI RM R [2, 14]: 10 | CLSI RM R [2, 5]: 5 | EUCAST RM R [2, 13]: 10 | EUCAST RM R [2, 8]: 5 | CLSI RM S [2, 14]: 12 | CLSI RM S [2, 5]: 7 | EUCAST RM S [2, 13]: 10 | EUCAST RM S [2, 8]: 7

CO/N=C(\C(=O)N[C@@H]1C(=O)N2C(C(=O)O)=C(COC(C)=O)CS[C@H]12)c1csc(N)n1 [Cefotaxime]
RM R (strains resistant by reference method) ([1]; CLSI): 75 | RM S (strains susceptible by reference method) ([1]; CLSI): 156 | RM R (strains resistant by reference method) ([1]; EUCAST): 75 | RM S (strains susceptible by reference method) ([1]; EUCAST): 156 | CLSI RM R [1, 3]: 54 | CLSI RM R [1, 4]: 13 | CLSI RM R [1, 5]: 8 | EUCAST RM R [1, 6]: 54 | EUCAST RM R [1, 7]: 13 | EUCAST RM R [1, 8]: 8 | CLSI RM S [1, 3]: 27 | CLSI RM S [1, 4]: 61 | CLSI RM S [1, 5]: 68 | EUCAST RM S [1, 6]: 27 | EUCAST RM S [1, 7]: 61 | EUCAST RM S [1, 8]: 68

CO[C@@]1(NC(=O)Cc2cccs2)C(=O)N2C(C(=O)O)=C(COC(N)=O)CS[C@@H]21 [Cefoxitin]
RM R (strains resistant by reference method) [2, 9]: 17 | RM S (strains susceptible by reference method) [2, 9]: 26 | RM R (strains resistant by reference method) [2, 10]: 52 | RM S (strains susceptible by reference method) [2, 10]: 48 | RM R (strains resistant by reference method) [2, 11]: 17 | RM S (strains susceptible by reference method) [2, 11]: 26 | RM R (strains resistant by reference method) [2, 12]: 52 | RM S (strains susceptible by reference method) [2, 12]: 48 | CLSI RM R [2, 14]: 9 | CLSI RM R [2, 5]: 26 | EUCAST RM R [2, 13]: 9 | EUCAST RM R [2, 8]: 26 | CLSI RM S [2, 14]: 13 | CLSI RM S [2, 5]: 9 | EUCAST RM S [2, 13]: 13 | EUCAST RM S [2, 8]: 9

C[C@@H](O)[C@H]1C(=O)N2C(C(=O)O)=C(SCCN=CN)C[C@H]12 [Imipenem]
RM I (strains intermediate by reference method) [2, 11]: 39 | RM R (strains resistant by reference method) [2, 11]: 26 | EUCAST RM I [2, 13]: 12 | EUCAST RM R [2, 13]: 1

CC(=O)NC[C@H]1CN(c2ccc(N3CCOCC3)c(F)c2)C(=O)O1 [Linezolid]
RM R (strains resistant by reference method) [2, 9]: 3 | RM S (strains susceptible by reference method) [2, 9]: 128 | RM R (strains resistant by reference method) [2, 10]: 5 | RM S (strains susceptible by reference method) [2, 10]: 298 | RM R (strains resistant by reference method) [2, 11]: 3 | RM S (strains susceptible by reference method) [2, 11]: 128 | RM R (strains resistant by reference method) [2, 12]: 5 | RM S (strains susceptible by reference method) [2, 12]: 298 | CLSI RM R [2, 5]: 2 | EUCAST RM R [2, 8]: 2 | CLSI RM S [2, 14]: 68 | CLSI RM S [2, 5]: 102 | EUCAST RM S [2, 13]: 68 | EUCAST RM S [2, 8]: 102

Cc1onc(-c2ccccc2)c1C(=O)N[C@@H]1C(=O)N2[C@@H]1SC(C)(C)[C@@H]2C(=O)O [Oxacillin]
RM R (strains resistant by reference method) [2, 9]: 19 | RM S (strains susceptible by reference method) [2, 9]: 4 | RM R (strains resistant by reference method) [2, 10]: 74 | RM S (strains susceptible by reference method) [2, 10]: 14 | RM R (strains resistant by reference method) [2, 11]: 19 | RM S (strains susceptible by reference method) [2, 11]: 4 | RM R (strains resistant by reference method) [2, 12]: 74 | RM S (strains susceptible by reference method) [2, 12]: 14 | CLSI RM R [2, 14]: 19 | CLSI RM R [2, 5]: 36 | EUCAST RM R [2, 13]: 19 | EUCAST RM R [2, 8]: 36 | CLSI RM S [2, 14]: 5 | CLSI RM S [2, 5]: 5 | EUCAST RM S [2, 13]: 5 | EUCAST RM S [2, 8]: 5

Amoxacillin-clavulanic acid
RM I (strains intermediate by reference method) ([1]; CLSI): 14 | RM R (strains resistant by reference method) ([1]; CLSI): 107 | RM S (strains susceptible by reference method) ([1]; CLSI): 110 | RM R (strains resistant by reference method) ([1]; EUCAST): 125 | RM S (strains susceptible by reference method) ([1]; EUCAST): 106 | CLSI RM I [1, 3]: 5 | CLSI RM I [1, 4]: 9 | CLSI RM R [1, 3]: 56 | CLSI RM R [1, 4]: 19 | CLSI RM R [1, 5]: 32 | EUCAST RM R [1, 6]: 62 | EUCAST RM R [1, 7]: 30 | EUCAST RM R [1, 8]: 33 | CLSI RM S [1, 3]: 20 | CLSI RM S [1, 4]: 46 | CLSI RM S [1, 5]: 44 | EUCAST RM S [1, 6]: 19 | EUCAST RM S [1, 7]: 44 | EUCAST RM S [1, 8]: 43

Ceftazidime-avibactam
RM R (strains resistant by reference method) ([1]; CLSI): 8 | RM S (strains susceptible by reference method) ([1]; CLSI): 307 | RM R (strains resistant by reference method) ([1]; EUCAST): 8 | RM S (strains susceptible by reference method) ([1]; EUCAST): 307 | CLSI RM R [1, 3]: 8 | CLSI RM R [1, 4]: 1 | EUCAST RM R [1, 6]: 8 | CLSI RM S [1, 3]: 145 | CLSI RM S [1, 4]: 81 | CLSI RM S [1, 5]: 81 | EUCAST RM S [1, 6]: 145 | EUCAST RM S [1, 7]: 81 | EUCAST RM S [1, 8]: 81

Ceftolozane-tazobactam
RM I (strains intermediate by reference method) ([1]; CLSI): 5 | RM R (strains resistant by reference method) ([1]; CLSI): 40 | RM S (strains susceptible by reference method) ([1]; CLSI): 267 | RM R (strains resistant by reference method) ([1]; EUCAST): 45 | RM S (strains susceptible by reference method) ([1]; EUCAST): 267 | CLSI RM I [1, 3]: 4 | CLSI RM I [1, 5]: 1 | CLSI RM R [1, 3]: 37 | CLSI RM R [1, 4]: 3 | EUCAST RM R [1, 6]: 41 | EUCAST RM R [1, 7]: 3 | EUCAST RM R [1, 8]: 1 | CLSI RM S [1, 3]: 112 | CLSI RM S [1, 4]: 75 | CLSI RM S [1, 5]: 80 | EUCAST RM S [1, 6]: 112 | EUCAST RM S [1, 7]: 75 | EUCAST RM S [1, 8]: 80 | MIC (K. pneumoniae; strain EB 032, site 3): 4 µg/mL | MIC (K. pneumoniae; strain EB 101, site 1): >32 µg/mL | MIC (K. pneumoniae; strain EB 677, site 1): 16 µg/mL | MIC (K. pneumoniae; strain EB 679, site 1): >32 µg/mL

Gentamicin [Gentamicin high level]
RM R (strains resistant by reference method) [2, 9]: 12 | RM S (strains susceptible by reference method) [2, 9]: 35 | RM R (strains resistant by reference method) [2, 10]: 15 | RM S (strains susceptible by reference method) [2, 10]: 51 | RM R (strains resistant by reference method) [2, 11]: 12 | RM S (strains susceptible by reference method) [2, 11]: 35 | RM R (strains resistant by reference method) [2, 12]: 15 | RM S (strains susceptible by reference method) [2, 12]: 51 | CLSI RM R [2, 14]: 2 | CLSI RM R [2, 5]: 1 | EUCAST RM R [2, 13]: 2 | EUCAST RM R [2, 8]: 1 | CLSI RM S [2, 14]: 10 | CLSI RM S [2, 5]: 6 | EUCAST RM S [2, 13]: 10 | EUCAST RM S [2, 8]: 6

— patent publication US20250154554A1, “ANTIMICROBIAL SUSCEPTIBILITY” (priority 2022, published 2025)
